# Read-outs that look alike come from different tables or passages of the source.
# Legend:
# [1] = MTMD (Maximum Tolerated Multiple Dose) determination, iv weekly x3; format: in vivo; conditions: mice; iv/Q7dx3
# From the text: (§1) Female CD-1 or Athymic Nude-Fox1 nu/nu mice (Envigo) were utilized for all experiments. […] Animals were acclimated for five days prior to being individually tattoo-identified. Animal protocols were reviewed and approved according to the regional Institutional Animal Care and Use Committees.
# (§2) Mice were randomly allocated into experimental groups and intravenously administered, once for the MTD (Maximum Tolerated Dose) determination or one administration a week during three consecutive weeks, for the MTMD (Maximum Tolerated Multiple Dose) determination study. The animals were administered with white formulation or with compound dissolved in the experimental formulation at different concentrations. The volume administered was always 10 mL/kg. Once administered, animals were monitored for clinical signs of systemic toxicity, changes in body weight and mortality up to 14 days after the administration.
# [2] = MTD (Maximum Tolerated Dose) determination, single iv administration; format: in vivo; conditions: female, mouse, in vivo; mice; iv/SD
# From the text: as §1, §2
# A549 cells = assay: cells; conditions: Homo sapiens, A549, 72 h; for CC50: read-out: LC50
# Outline: (§3)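 SRB colorimetric readout, referenced to a time-zero fixed plate, after 72 h compound exposure over 10 to 0.003 μg/mL (ten 2/5 dilutions, 1% DMSO final, triplicates). Human lines grown in DMEM/10% FBS, plated at 5000 cells/well overnight; four-parameter logistic fitting per NCI algorithm.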
# HT29 cells = assay: cells; conditions: Homo sapiens, HT-29, 72 h; for CC50: read-out: LC50
# Outline: as §3
# [3] = tested on: solid and non-solid tumour cell lines; conditions: cited from earlier work
# [4] = tested on: xenografted human tumor cell lines (breast, kidney and ovarian cancer); conditions: xenografted human tumor cell lines in mice, such as breast; cited from earlier work
# PSN1 cells = assay: cells; conditions: Homo sapiens, PSN1, 72 h
# Outline: as §3
# MDA-MB-231 cells = assay: cells; conditions: Homo sapiens, MDA-MB-231, 72 h
# Outline: as §3
# Procedure for DU-145 tumors: Female athymic nu/nu mice (Harlan Laboratories Models, S. L. Barcelona, Spain or Envigo, Spain) were utilized for all experiments. Animal were housed in individually ventilated cages Sealsafe® Plus, Techniplast S.P.A.), up to ten per cage on a 12-hour light-dark cycle at 21-23° C. and 40-60% humidity. Mice were allowed free access to irradiated standard rodent diet (Tecklad 2914C) and sterilized water. Animals were acclimated for at least 5 days prior to tumor implantation with a tumor cell suspension.
# Culture cells were passaged every 3 to 5 days upon reaching confluence Each male athymic mice was subcutaneously implanted (on the right flank using a 26 G needle and a 1 cc syringe) at 4-6 weeks of age with 5×10^6 DU-145 cells suspended in 0.05 mL of a solution consisting of 50% Matrigel® Matrix (Corning Incorporated Life Sciences) and 50% medium without serum or antibiotics.
# Treatment tolerability was assessed by monitoring body weight evolution, clinical signs of systemic toxicity, as well as evidences of local damage in the injection site.
# In xenograft studies with other cell lines: • Tumor volume was calculated using the equation (a·b^2)/2, where a: length (longest diameter) and b: width (shortest diameter) were measured in mm by using digital caliper (Fowler Sylvac, S235PAT).
# Treatments producing >20% lethality and/or 20% net body weight loss were considered toxic.
# Tables and figures summarize the data obtained from complete experimental groups, i.e. those groups keeping the initial number of animals, n=8-10.
compound,measurement,setting,value
COc1c(C)cc2c(c1O)[C@@H]1[C@@H]3[C@@H]4SC[C@]5(N[C@H](CO)Cc6c5[nH]c5ccccc65)C(=O)OC[C@@H](c5c6c(c(C)c(OC(C)=O)c54)OCO6)N3[C@@H](O)[C@H](C2)N1C [Compound 4-S],Median Tumor Volume,"DU-145 tumors; Day 0, 4-S 1.00 mg/Kg iv Days 0, 7 and 14",126.2 mm^3
same,Median Tumor Volume,"DU-145 tumors; Day 3, 4-S 1.00 mg/Kg iv Days 0, 7 and 14",102.4 mm^3
same,Median Tumor Volume,"DU-145 tumors; Day 5, 4-S 1.00 mg/Kg iv Days 0, 7 and 14",119.5 mm^3
same,Median Tumor Volume,"DU-145 tumors; Day 7, 4-S 1.00 mg/Kg iv Days 0, 7 and 14",149.5 mm^3
same,Median Tumor Volume,"DU-145 tumors; Day 10, 4-S 1.00 mg/Kg iv Days 0, 7 and 14",216.8 mm^3
same,Median Tumor Volume,"DU-145 tumors; Day 12, 4-S 1.00 mg/Kg iv Days 0, 7 and 14",181.4 mm^3
same,Median Tumor Volume,"DU-145 tumors; Day 14, 4-S 1.00 mg/Kg iv Days 0, 7 and 14",237.7 mm^3
same,Median Tumor Volume,"DU-145 tumors; Day 17, 4-S 1.00 mg/Kg iv Days 0, 7 and 14",204.4 mm^3
same,Median Tumor Volume,"DU-145 tumors; Day 19, 4-S 1.00 mg/Kg iv Days 0, 7 and 14",210.9 mm^3
same,Median Tumor Volume,"DU-145 tumors; Day 24, 4-S 1.00 mg/Kg iv Days 0, 7 and 14",300.0 mm^3
same,Median Tumor Volume,"DU-145 tumors; Day 26, 4-S 1.00 mg/Kg iv Days 0, 7 and 14",378.4 mm^3
same,Median Tumor Volume,"DU-145 tumors; Day 28, 4-S 1.00 mg/Kg iv Days 0, 7 and 14",587.0 mm^3
same,Median Tumor Volume,"DU-145 tumors; Day 31, 4-S 1.00 mg/Kg iv Days 0, 7 and 14",650.3 mm^3
same,MTMD,[1],1.25 mg/kg
same,MTD at 14 days,[2],1 mg/kg
same,CC50,A549 cells,> 127 nM
same,CC50,HT29 cells,> 127 nM
COc1ccc2[nH]c3c(c2c1)CCN[C@]31CS[C@@H]2c3c(OC(C)=O)c(C)c4c(c3[C@H](COC1=O)N1[C@@H]2[C@H]2c3c(cc(C)c(OC)c3O)C[C@@H]([C@@H]1O)N2C)OCO4 [PM01183],in vitro activity,[3],highly potent in vitro activity
same,in vivo activity,[4],significant in vivo activity
same,GI50,A549 cells,3.31 nM
same,CC50,A549 cells,> 127 nM
same,IC (TGI),A549 cells; read-out: TGI,3.57 nM
same,GI50,PSN1 cells,3.19 nM
same,CC50,PSN1 cells; read-out: LC50,5.73 nM
same,IC (TGI),PSN1 cells; read-out: TGI,3.95 nM
same,GI50,HT29 cells,1.91 nM
same,CC50,HT29 cells,> 127 nM
same,IC (TGI),HT29 cells; read-out: TGI,4.46 nM
same,GI50,MDA-MB-231 cells,2.29 nM
same,CC50,MDA-MB-231 cells; read-out: LC50,10.2 nM
same,IC (TGI),MDA-MB-231 cells; read-out: TGI,3.95 nM

# From patent US10538535B2, “Antitumoral compounds” (priority 2017, dated 2020)
